The values below come from patent US20120094964A1, “SULFAMOYL BENZOIC ACID DERIVATIVES AS TRPM8 ANTAGONISTS” (priority 2009, published 2012).

Structures are written as SMILES. pIC50: −log10 of the molar value. A value given as a limit tells only on which side of the number the result lay.

The target in this experiment is T1, human TRPM8 (Homo sapiens, UniProt Q7Z2W7).
T1 construct: expressed in transfected cells
T1 sequence (Q7Z2W7 whole entry): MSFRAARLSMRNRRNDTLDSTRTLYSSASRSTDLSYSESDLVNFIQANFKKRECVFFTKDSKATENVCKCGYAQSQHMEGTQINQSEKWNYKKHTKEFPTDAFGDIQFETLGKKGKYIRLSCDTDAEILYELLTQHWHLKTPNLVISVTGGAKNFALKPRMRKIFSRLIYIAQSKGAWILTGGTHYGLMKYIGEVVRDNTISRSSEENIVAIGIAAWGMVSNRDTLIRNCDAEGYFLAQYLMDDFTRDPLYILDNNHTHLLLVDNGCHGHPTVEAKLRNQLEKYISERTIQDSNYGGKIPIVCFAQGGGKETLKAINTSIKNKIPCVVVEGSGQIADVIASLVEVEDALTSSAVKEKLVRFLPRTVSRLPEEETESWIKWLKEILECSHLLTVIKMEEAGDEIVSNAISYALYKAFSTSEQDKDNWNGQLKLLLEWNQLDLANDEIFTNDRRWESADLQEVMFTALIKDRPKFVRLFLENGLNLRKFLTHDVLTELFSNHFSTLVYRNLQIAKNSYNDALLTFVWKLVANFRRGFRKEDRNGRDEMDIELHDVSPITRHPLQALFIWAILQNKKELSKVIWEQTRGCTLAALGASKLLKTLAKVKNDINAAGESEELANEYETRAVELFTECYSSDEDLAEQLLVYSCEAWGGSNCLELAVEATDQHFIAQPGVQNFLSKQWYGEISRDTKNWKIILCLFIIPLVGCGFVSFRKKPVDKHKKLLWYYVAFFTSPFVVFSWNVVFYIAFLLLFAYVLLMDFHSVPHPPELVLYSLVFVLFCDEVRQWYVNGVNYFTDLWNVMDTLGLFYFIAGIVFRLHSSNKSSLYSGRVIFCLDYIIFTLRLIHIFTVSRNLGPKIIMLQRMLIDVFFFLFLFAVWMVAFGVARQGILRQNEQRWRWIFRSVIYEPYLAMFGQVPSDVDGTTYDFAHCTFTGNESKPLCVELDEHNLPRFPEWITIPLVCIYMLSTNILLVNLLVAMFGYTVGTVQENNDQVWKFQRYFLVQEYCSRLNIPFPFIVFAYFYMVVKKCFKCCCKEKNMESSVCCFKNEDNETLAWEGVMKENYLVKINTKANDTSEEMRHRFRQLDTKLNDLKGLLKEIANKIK
Briefly: In Vitro human TRPM8 Functional Assay (intracellular Ca2+, Fluo4, FDSS, menthol activation). It is filed as cell-based. Conditions: HEK293 cells stably expressing human TRPM8; activation with L-(-)-Menthol; 11-point dose-response. In outline: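 Fluo4-loaded HEK293 cells stably expressing TRPM8 were preincubated with compound for 5 min at room temperature, then stimulated with L-menthol (20 μl of 90 μM stock) while fluorescence was read. IC50 values come from 11-point curves fitted to the mean of duplicate wells.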
Take `COc1ccc(OC)c(C(C)N(c2ccc(C)cc2)S(=O)(=O)c2ccc(F)cc2C)c1` (stereo not shown) [Example 96, N-(1-(2,5-Dimethoxyphenyl)ethyl)-4-fluoro-2-methyl-N-p-tolylbenzenesulfonamide]: the negative logarithm of the IC50 (pIC50) is 5.00 to 6.00.
Under `O=C(O)c1cc(S(=O)(=O)N(Cc2ccccc2)c2ccc(Cl)cc2)ccc1Cl` [Example 122, 5-(N-Benzyl-N-(4-chlorophenyl)sulfamoyl)-2-chlorobenzoic acid] stands 5.00 to 6.00; under `O=S(=O)(c1ccc(F)cc1)N(Cc1ccccc1)c1ccccn1` [Example 108, N-Benzyl-4-fluoro-N-(pyridin-2-yl)benezene-sulfonamide], 5.00 to 6.00.
`O=C(O)c1ccc(S(=O)(=O)N(Cc2ccc(Cl)c(Cl)c2)c2ncc(C(F)(F)F)cc2Cl)cc1` [Example 47, 4-(N-(3-Chloro-5-(trifluoromethyl)pyridin-2-yl)-N-(3,4-dichlorobenzyl)sulfamoyl)benzoic acid]: the negative logarithm of the IC50 (pIC50) is greater than 6.00.
For `Cc1cccc(N(C(C)c2ccccc2F)S(=O)(=O)c2ccc(F)cc2C)c1` (stereo not shown) [Example 98, 4-Fluoro-N-(1-(2-fluorophenyl)ethyl)-2-methyl-N-m-tolylbenzenesulfonamide], the pIC50 was 5.00 to 6.00.
Take `O=C(CN(c1cccc(C(F)(F)F)c1)S(=O)(=O)c1ccccc1)N1CCCCC1` [Example 6, N-(2-oxo-2-(piperidin-1-yl)ethyl)-N-(3-(trifluoromethyl)phenyl)benzenesulfonamide]: the negative logarithm of the IC50 (pIC50) is 4.52 to 5.00.
The figure for `O=C(O)c1ccc(S(=O)(=O)N(Cc2csc(-c3ccccc3)n2)c2ncc(C(F)(F)F)cc2Cl)cc1` [Example 198, 4-(N-(3-Chloro-5-(trifluoromethyl)pyridin-2-yl)-N-((2-phenylthiazol-4-yl)methyl)sulfamoyl)benzoic acid] is greater than 6.00.
The compound `COc1ccc(N(Cc2ccccc2)S(=O)(=O)c2cccc(C(=O)O)c2)cc1` [Example 113, 3-(N-Benzyl-N-(4-methoxyphenyl)sulfamoyl) benzoic acid] showed a negative-log IC50 (pIC50) of 5.00 to 6.00.
The compound `O=C(O)c1ccc(S(=O)(=O)N(Cc2ccc(-c3cccs3)cc2)c2ncc(C(F)(F)F)cc2Cl)cc1` [Example 155, 4-(N-(3-Chloro-5-(trifluoromethyl)pyridin-2-yl)-N-(4-(thiophen-2-yl)benzyl)sulfamoyl)benzoic acid] gave a pIC50 greater than 6.00.
Under `O=C(O)c1ccc(S(=O)(=O)N(Cc2ccccc2)c2ncc(C(F)(F)F)cc2Cl)cc1Cl` [Example 188, 4-(N-Benzyl-N-(3-chloro-5-(trifluoromethyl)pyridin-2-yl)sulfamoyl)-2-chlorobenzoic acid] stands greater than 6.00.
Turning to `O=S(=O)(Nc1cccc(C(F)(F)F)c1)c1ccccc1` [Example 4, N-(3-(Trifluoromethyl)phenyl)benzenesulfonamide], the pIC50 is 4.52 to 5.00.
Under `O=C(O)c1ccc(S(=O)(=O)N(Cc2ccc(C(F)(F)F)nc2)c2ncc(C(F)(F)F)cc2Cl)cc1` [Example 160, 4-(N-(3-Chloro-5-(trifluoromethyl)pyridin-2-yl)-N-((6-(trifluoromethyl)pyridin-3-yl)methyl)sulfamoyl)benzoic acid] stands greater than 6.00; under `O=C(O)c1ccc(S(=O)(=O)N(CCN2CCCCC2)c2ccc(C(F)(F)F)cc2Cl)cc1` [Example 83, 4-(N-(2-Chloro-4-(trifluoromethyl)phenyl)-N-(2-(piperidin-1-yl)ethyl)sulfamoyl)benzoic acid], 5.00 to 6.00.
Consider `Cc1cc(Cl)cnc1N(Cc1ccc(N2CCCC2=O)cc1)S(=O)(=O)c1ccc(C(=O)O)cc1` [Example 80, 4-(N-(5-Chloro-3-methylpyridin-2-yl)-N-(4-(2-oxopyrrolidin-1-yl)benzyl)sulfamoyl)benzoic acid], for which the pIC50 is 5.00 to 6.00.
Regarding `CN1CCN(C(=O)CN(c2cccc(C(F)(F)F)c2)S(=O)(=O)c2ccccc2)CC1` [Example 5, N-(2-(4-Methylpiperazin-1-yl)-2-oxoethyl)-N-(3-(trifluoromethyl)phenyl)benzenesulfonamide], the pIC50 is greater than 6.00.
The figure for `O=C(O)c1ccc(S(=O)(=O)N(Cc2ccccc2OC(F)(F)F)c2ncc(C(F)(F)F)cc2Cl)cc1` [Example 51, 4-(N-(3-Chloro-5-(trifluoromethyl)pyridin-2-yl)-N-(2-(trifluoromethoxy)benzyl)sulfamoyl)benzoic acid] is greater than 6.00.
Turning to `C[C@@H](c1ccccc1)N(c1ncc(C(F)(F)F)cc1Cl)S(=O)(=O)c1ccc(C(=O)O)cc1` [Example 197, (S)-4-(N-(3-Chloro-5-(trifluoromethyl)pyridin-2-yl)-N-(1-phenylethyl)sulfamoyl)benzoic acid], the pIC50 is greater than 6.00.
`COc1cccc(C(C)N(c2ccccc2)S(=O)(=O)c2ccc(C)c(F)c2)c1` (stereo not shown) [Example 101, 3-Fluoro-N-(1-(3-methoxyphenyl)ethyl)-4-methyl-N-phenylbenzene-sulfonamide]: the pIC50 was 5.00 to 6.00.
As to `Cc1cc(Cl)cnc1N(Cc1ccc(OC(F)(F)F)cc1)S(=O)(=O)c1ccc(C(=O)O)cc1` [Example 78, 4-(N-(5-Chloro-3-methylpyridin-2-yl)-N-(4-(trifluoromethoxy)benzyl)sulfamoyl)benzoic acid], the negative-log IC50 (pIC50) was greater than 6.00.
The figure for `Cc1ccc(CN(c2ncc(C(F)(F)F)cc2Cl)S(=O)(=O)c2ccc(C(=O)O)cc2)cc1` [Example 27, 4-(N-(3-Chloro-5-(trifluoromethyl)pyridin-2-yl)-N-(4-methylbenzyl)sulfamoyl)benzoic acid] is greater than 6.00.
The compound `N#Cc1ccc(CN(c2ncc(C(F)(F)F)cc2Cl)S(=O)(=O)c2ccc(C(=O)O)cc2)cc1` [Example 33, 4-(N-(3-Chloro-5-(trifluoromethyl)pyridin-2-yl)-N-(4-cyanobenzyl)sulfamoyl)benzoic acid] gave a pIC50 greater than 6.00.
Regarding `O=C(O)c1ccc(S(=O)(=O)N(Cc2ccc(-c3cnco3)cc2)c2ncc(C(F)(F)F)cc2Cl)cc1` [Example 159, 4-(N-(3-Chloro-5-(trifluoromethyl)pyridin-2-yl)-N-(4-(oxazol-5-yl)benzyl)sulfamoyl)benzoic acid], the pIC50 is greater than 6.00.
On to `O=C(O)c1ccc(S(=O)(=O)N(Cc2ccc(-c3ccncc3)cc2)c2ncc(C(F)(F)F)cc2Cl)cc1` [Example 156], for which the negative logarithm of the IC50 (pIC50) is greater than 6.00.
Compound `O=C(O)c1ccc(S(=O)(=O)N(CCOc2ccc(F)cc2)c2ncc(Cl)cc2Cl)cc1` [Example 73, 4-(N-(3,5-Dichloropyridin-2-yl)-N-(2-(4-fluorophenoxy)ethyl)sulfamoyl)benzoic acid] had a pIC50 of 4.52 to 5.00.
As to `Cc1cc(C)c(S(=O)(=O)N(Cc2ccccc2)c2ccccn2)c(C)c1` [Example 127, N-Benzyl-2,4,6-trimethyl-N-(pyridin-2-yl)benzene-sulfonamide], the negative-log IC50 (pIC50) is 5.00 to 6.00.
Compound `O=C(O)c1ccc(S(=O)(=O)N(Cc2ccc(-c3ccccc3)cc2)c2ncc(C(F)(F)F)cc2Cl)cc1` [Example 158, 4-(N-([1,1′-Biphenyl]-4-ylmethyl)-N-(3-chloro-5-(trifluoromethyl)pyridin-2-yl)sulfamoyl)benzoic acid] showed a negative logarithm of the IC50 (pIC50) greater than 6.00.
Under `C[C@H](c1ccccc1)N(c1ncc(C(F)(F)F)cc1Cl)S(=O)(=O)c1ccc(C(=O)O)cc1` [Example 166, (R)-4-(N-(3-Chloro-5-(trifluoromethyl)pyridin-2-yl)-N-(1-phenylethyl)sulfamoyl)benzoic acid] stands greater than 6.00; under `O=C(O)c1ccc(S(=O)(=O)N(CCCc2ccccc2)c2ncc(C(F)(F)F)cc2Cl)cc1` [Example 59, 4-(N-(3-Chloro-5-(trifluoromethyl)pyridin-2-yl)-N-(3-phenylpropyl)sulfamoyl)benzoic acid], greater than 6.00.
With `O=[N+]([O-])c1ccc(S(=O)(=O)N(Cc2ccccc2)c2ccccn2)cc1` [Example 130, N-Benzyl-4-nitro-N-(pyridin-2-yl)benzene-sulfonamide], the negative-log IC50 (pIC50) is 5.00 to 6.00.
`O=C(O)c1ccc(S(=O)(=O)N(Cc2cccs2)c2ncc(C(F)(F)F)cc2Cl)cc1` [Example 167, 4-(N-(3-Chloro-5-(trifluoromethyl)pyridin-2-yl)-N-(thiophen-2-ylmethyl)sulfamoyl)benzoic acid] showed a pIC50 greater than 6.00.
Compound `O=C(O)c1ccc(S(=O)(=O)N(Cc2ccccc2)c2ncccc2C(F)(F)F)cc1` [Example 2, 4-(N-Benzyl-N-(3-(trifluoromethyl)pyridin-2-yl)sulfamoyl)benzoic acid] gave a negative logarithm of the IC50 (pIC50) of 4.52 to 5.00.
Under `COc1cccc(-c2cnc(N(Cc3ccccc3)S(=O)(=O)c3ccc(C(=O)O)cc3)c(Cl)c2)c1` [Example 187, 4-(N-Benzyl-N-(3-chloro-5-(3-methoxyphenyl)pyridin-2-yl)sulfamoyl)benzoic acid] stands greater than 6.00.
Under `Cc1cc(Cl)cnc1N(Cc1ccc(Cl)c(C(F)(F)F)c1)S(=O)(=O)c1ccc(C(=O)O)cc1` [Example 79, 4-(N-(4-Chloro-3-(trifluoromethyl)benzyl)-N-(5-chloro-3-methylpyridin-2-yl)sulfamoyl)benzoic acid] stands greater than 6.00.
As for `COc1ccc(N(C(C)c2ccccc2OC)S(=O)(=O)c2ccccc2F)cc1OC` (stereo not shown) [Example 93, N-(3,4-Dimethoxyphenyl)-2-fluoro-N-(1-(2-methoxy-phenyl)ethyl)benzene-sulfonamide], the pIC50 is 5.00 to 6.00.
Regarding `Cc1cc(Cl)cnc1N(Cc1ccc(F)c(Cl)c1)S(=O)(=O)c1ccc(C(=O)O)cc1` [Example 77, 4-(N-(5-Chloro-3-methylpyridin-2-yl)-N-(3-chloro-4-fluorobenzyl)sulfamoyl)benzoic acid], the negative logarithm of the IC50 (pIC50) is greater than 6.00.
The compound `O=C(O)c1ccc(S(=O)(=O)N(Cc2ccc(N3CCCC3=O)cc2)c2ncc(Cl)cc2Cl)cc1` [Example 74, 4-(N-(3,5-Dichloropyridin-2-yl)-N-(4-(2-oxopyrrolidin-1-yl)benzyl)sulfamoyl)benzoic acid] gave a negative-log IC50 (pIC50) of 5.00 to 6.00.
With `O=C(O)c1ccc(Cl)c(S(=O)(=O)N(Cc2ccccc2)c2ccccc2Cl)c1` [Example 120, 3-(N-Benzyl-N-(2-chlorophenyl)sulfamoyl)-4-chlorobenzoic acid], the pIC50 was 5.00 to 6.00.

Usually pIC50 stands for the negative decadic logarithm of the IC50, by convention in mol/L. Higher therefore signals a small IC50.
